This passage reports AC50, EC50 and IC50 results from ChEMBL document CHEMBL1201862, “PubChem BioAssay data set” (2004).

Targets include Cytochrome P450 2C9 (Homo sapiens, UniProt P11712); Cytochrome P450 3A4 (Homo sapiens, UniProt P08684); Cytochrome P450 2D6 (Homo sapiens, UniProt P10635).
The target of another series is Paired box protein Pax-8 (Homo sapiens, UniProt Q06710). Nature of the series: PAX8 transcriptional activity inhibition in RMG-I – RMG-I cells, luciferase, cherry-pick, dose response (AID 687027).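 Note: luciferase reporter driven by Pax8 target thyroperoxidase promoter measured by SteadyGlo luminescence.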 It counts as functional, cell-based.
Series [1] has as its target T1, Heat shock factor protein 1 (Mus musculus, UniProt P38532).
T1 sequence (P38532 whole entry): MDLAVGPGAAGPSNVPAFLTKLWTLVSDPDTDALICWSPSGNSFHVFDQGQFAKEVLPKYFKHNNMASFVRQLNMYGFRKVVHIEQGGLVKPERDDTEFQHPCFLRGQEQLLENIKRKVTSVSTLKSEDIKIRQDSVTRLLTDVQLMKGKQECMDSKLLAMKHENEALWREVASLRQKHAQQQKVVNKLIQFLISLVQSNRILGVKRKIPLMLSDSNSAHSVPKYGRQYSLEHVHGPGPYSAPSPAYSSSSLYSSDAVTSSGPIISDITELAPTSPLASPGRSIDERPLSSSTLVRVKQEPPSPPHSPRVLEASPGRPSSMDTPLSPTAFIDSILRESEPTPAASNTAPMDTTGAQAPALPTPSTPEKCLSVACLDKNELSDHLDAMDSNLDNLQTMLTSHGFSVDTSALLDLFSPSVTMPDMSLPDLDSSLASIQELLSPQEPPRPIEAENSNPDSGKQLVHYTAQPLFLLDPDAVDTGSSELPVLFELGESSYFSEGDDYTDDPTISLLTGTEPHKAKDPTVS
Nature of the series: enhancement of HSF1-driven luciferase signal – cell-based, NIH3T3, luminescence, dose retest, confirmation (AID 435004).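 Note: stress induced by proteasome inhibitor MG132 added 30 min after compound; luciferase reporter driven by HSF1 response element in NIH3T3 cells; actives raise luminescence as potentiators of the MG132 stress response.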 It counts as functional.

Series [2] has as its system HEK293. In words: EBV LMP1 TES2 canonical NF-kB signalling blockers – cell-based, HEK293, luciferase, cherry-pick, dose response (AID 588343). Type of series: functional. Conditions: Homo sapiens.
Series [3] is described as follows: viability of HCT116 lacking mutant beta-catenin – cell-based, human colon tumor, dose response (AID 1045).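 Note: HCT116 colon tumor cells with beta catenin knocked out; cells exposed to compound for 60 hours.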 It counts as functional.
Series [4] addresses T2, Corticotropin-releasing factor receptor 2/Corticotropin-releasing factor-binding protein (Homo sapiens, UniProt P24387+Q13324).
T2 sequence (Q13324 whole entry): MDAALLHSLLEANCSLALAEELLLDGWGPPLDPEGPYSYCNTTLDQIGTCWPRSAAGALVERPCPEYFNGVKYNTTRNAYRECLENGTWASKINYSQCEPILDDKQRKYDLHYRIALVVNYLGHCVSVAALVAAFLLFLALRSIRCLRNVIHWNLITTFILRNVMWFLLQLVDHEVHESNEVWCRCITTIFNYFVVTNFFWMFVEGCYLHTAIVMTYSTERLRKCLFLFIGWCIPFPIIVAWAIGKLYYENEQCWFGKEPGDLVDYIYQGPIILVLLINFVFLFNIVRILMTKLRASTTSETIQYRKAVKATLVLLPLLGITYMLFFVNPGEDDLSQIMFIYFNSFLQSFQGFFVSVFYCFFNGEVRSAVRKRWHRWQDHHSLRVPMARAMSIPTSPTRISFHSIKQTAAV
T2 sequence (P24387 whole entry): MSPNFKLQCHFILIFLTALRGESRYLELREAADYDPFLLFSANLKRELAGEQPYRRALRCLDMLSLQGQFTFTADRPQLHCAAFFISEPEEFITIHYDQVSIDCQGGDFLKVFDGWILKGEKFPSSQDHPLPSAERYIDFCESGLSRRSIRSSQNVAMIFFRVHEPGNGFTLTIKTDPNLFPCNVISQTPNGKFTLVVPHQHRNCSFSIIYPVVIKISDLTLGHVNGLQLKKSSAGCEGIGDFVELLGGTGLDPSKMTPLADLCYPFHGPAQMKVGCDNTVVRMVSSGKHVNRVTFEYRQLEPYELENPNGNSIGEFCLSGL
In words: Dose Response confirmation of uHTS hits for small molecule antagonists of the CRF-binding protein and CRF-R2 receptor complex. Type of series: functional. Conditions: read-out: IC50_Mean.

Series [5] deals with G-protein coupled receptor 55 (Homo sapiens, UniProt Q9Y2T6). In words: inhibition of LPI-stimulated GPR55 beta-arrestin translocation – imaging, U2OS, beta-arrestin-GFP, LPI agonist, primary screen (AID 2013).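 Note: antagonist potency measured as reduced agonist-driven arrestin aggregation.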 Type of series: functional.
Series [6] addresses T2, Corticotropin-releasing factor receptor 2/Corticotropin-releasing factor-binding protein. Nature of the series: activators of CRF receptor 2 with binding protein – uHTS hits, confirmation (AID 602473). Type of series: functional. Conditions: read-out: EC50_Mean.
The nature of series [7]: viability of PTEN-deleted HCT116 cells – cell-based, HCT116 PTEN knockout, dose response (AID 1047).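 Note: HCT116 colon tumor cells with PTEN knocked out; cells exposed to compound for 60 hours before readout; potency for loss of cell viability measured by luminescence.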 Type of series: functional.
Series [8] relates to HEK293. In words: inhibition of NOD1-driven NF-kB reporter – cell-based, luminescence, uHTS, primary screen (AID 1578). Type of series: functional. Conditions: Homo sapiens.
Series [9] addresses Nucleotide-binding oligomerization domain-containing protein 2 (Homo sapiens, UniProt Q9HC29). In words: inhibition of NOD2-driven NF-kB reporter – cell-based, luminescence, uHTS, HEK293 (AID 1566). Type of series: functional.
The nature of series [10]: Luminescence Cell-Based Dose Retest to Confirm Inhibitors of Cancer Stem Cells. [Related pubchem assays (depositor defined):AID2717, AID2721]. Conditions: Homo sapiens. It counts as functional, Homo sapiens.
The subject of series [11] is HEK293. Nature of the series: cells. Conditions: Homo sapiens. Type of series: functional, cell-based.
The subject of series [12] is HEK293. In words: cells. It counts as functional, cell-based. Conditions: Homo sapiens. This is another data set of the same source.
Series [13] deals with HEK293. In words: cells. Conditions: Homo sapiens. It counts as functional, cell-based. The source holds these as a separate data set.
In series [14] the test system is HEK293. In words: NOD2 signaling inhibitors in MDP-stimulated cells, cell-based, uHTS, luminescence (AID 2001). Conditions: Homo sapiens. It counts as functional.
A further series deals with Cytochrome P450 2C19 (Homo sapiens, UniProt P33261). In words: Cytochrome panel assay with activity outcomes. Panel member name: p450-cyp2c19 Compounds with AC50 equal or less than 10 uM are considered active. It counts as functional.
The nature of series [15]: Trypanosoma cruzi growth suppression in host cells – NIH3T3 host cells, beta-gal luminescence, confirmation (AID 2044).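 Note: intracellular parasites grown in NIH/3T3 mouse fibroblasts as host cells; luminescent beta-galactosidase reporter signal from transgenic T. cruzi replicating inside host cells; inhibitors lower the luminescence signal.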 It counts as functional, cell-based.
Series [16] can be described thus: NIH3T3 cell viability loss – ATP luminescence, mouse fibroblasts, counter-screen, dose response (AID 2010).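 Note: cells exposed to compound for about 90 hours before reading.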 Type of series: functional, cell-based.
The next series deals with T3, Protein skinhead-1 (Caenorhabditis elegans, UniProt P34707).
T3 sequence (P34707 whole entry): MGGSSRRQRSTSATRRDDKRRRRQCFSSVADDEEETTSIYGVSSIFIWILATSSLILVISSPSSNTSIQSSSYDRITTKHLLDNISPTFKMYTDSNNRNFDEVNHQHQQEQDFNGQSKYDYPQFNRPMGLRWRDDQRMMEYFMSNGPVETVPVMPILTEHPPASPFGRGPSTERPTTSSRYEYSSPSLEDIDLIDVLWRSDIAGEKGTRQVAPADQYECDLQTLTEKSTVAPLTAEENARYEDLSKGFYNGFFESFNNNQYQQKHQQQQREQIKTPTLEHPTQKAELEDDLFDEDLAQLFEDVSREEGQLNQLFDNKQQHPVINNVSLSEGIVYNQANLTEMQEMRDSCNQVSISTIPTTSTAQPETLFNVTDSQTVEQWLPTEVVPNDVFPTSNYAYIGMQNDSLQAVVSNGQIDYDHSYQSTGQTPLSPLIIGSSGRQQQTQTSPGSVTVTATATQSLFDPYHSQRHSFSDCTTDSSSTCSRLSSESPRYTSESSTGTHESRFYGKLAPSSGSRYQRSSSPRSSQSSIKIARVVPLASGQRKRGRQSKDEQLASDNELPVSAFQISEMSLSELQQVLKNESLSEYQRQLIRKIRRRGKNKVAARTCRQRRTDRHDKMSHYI
It counts as functional.

Activity calls are given as the source filed them. Where only a bound is given, the exact number is not on record here.

Chain of Cytochrome P450 2C9 (P11712 whole entry): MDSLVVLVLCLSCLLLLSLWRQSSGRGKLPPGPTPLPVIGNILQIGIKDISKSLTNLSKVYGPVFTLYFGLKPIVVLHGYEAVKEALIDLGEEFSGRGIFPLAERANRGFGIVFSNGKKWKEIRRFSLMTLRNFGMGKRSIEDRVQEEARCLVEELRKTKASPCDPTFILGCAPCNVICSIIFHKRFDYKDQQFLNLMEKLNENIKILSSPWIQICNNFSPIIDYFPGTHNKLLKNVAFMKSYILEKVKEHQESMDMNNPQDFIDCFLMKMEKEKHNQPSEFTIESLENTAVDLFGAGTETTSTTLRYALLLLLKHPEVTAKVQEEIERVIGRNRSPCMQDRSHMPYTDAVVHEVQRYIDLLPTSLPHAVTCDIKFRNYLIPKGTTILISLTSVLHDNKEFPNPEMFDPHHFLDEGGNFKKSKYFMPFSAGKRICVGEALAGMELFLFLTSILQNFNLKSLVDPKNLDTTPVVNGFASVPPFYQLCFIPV
Chain of G-protein coupled receptor 55 (Q9Y2T6 whole entry): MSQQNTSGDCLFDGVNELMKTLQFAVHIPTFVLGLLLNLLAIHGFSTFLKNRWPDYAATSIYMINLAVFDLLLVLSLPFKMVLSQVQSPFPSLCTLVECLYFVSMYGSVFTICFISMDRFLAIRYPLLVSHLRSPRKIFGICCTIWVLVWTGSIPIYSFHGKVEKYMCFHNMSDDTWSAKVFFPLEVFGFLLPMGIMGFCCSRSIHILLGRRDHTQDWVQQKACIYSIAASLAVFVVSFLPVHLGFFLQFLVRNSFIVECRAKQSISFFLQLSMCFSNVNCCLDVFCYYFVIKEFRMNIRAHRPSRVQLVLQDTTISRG
Chain of Cytochrome P450 2C19 (P33261 whole entry): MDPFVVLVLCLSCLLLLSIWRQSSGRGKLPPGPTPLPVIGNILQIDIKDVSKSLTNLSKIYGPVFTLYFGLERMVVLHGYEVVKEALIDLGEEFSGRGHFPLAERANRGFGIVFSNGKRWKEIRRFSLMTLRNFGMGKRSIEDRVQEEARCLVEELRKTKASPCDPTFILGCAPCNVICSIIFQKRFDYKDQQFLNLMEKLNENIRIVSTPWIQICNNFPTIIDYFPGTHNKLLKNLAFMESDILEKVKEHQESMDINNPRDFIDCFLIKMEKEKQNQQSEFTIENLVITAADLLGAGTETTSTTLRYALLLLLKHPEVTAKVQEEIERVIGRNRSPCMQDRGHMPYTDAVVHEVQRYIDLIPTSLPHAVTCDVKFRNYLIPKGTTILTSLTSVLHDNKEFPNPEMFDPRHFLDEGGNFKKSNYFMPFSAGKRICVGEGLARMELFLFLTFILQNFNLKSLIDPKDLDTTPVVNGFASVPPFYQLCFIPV
Chain of Cytochrome P450 3A4 (P08684 whole entry): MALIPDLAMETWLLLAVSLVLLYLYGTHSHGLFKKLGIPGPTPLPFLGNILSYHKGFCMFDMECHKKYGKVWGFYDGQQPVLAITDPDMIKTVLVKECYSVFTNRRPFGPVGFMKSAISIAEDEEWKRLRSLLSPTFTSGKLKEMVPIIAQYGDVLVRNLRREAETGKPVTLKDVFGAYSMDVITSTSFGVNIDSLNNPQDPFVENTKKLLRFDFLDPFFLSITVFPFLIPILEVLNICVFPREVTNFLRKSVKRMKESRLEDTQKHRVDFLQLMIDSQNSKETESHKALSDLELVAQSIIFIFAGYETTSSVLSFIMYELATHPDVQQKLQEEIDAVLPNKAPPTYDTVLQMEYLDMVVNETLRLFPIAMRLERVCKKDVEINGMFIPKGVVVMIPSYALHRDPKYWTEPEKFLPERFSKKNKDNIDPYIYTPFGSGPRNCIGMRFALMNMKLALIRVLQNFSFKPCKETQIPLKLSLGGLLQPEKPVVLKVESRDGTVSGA
Chain of Cytochrome P450 2D6 (P10635 whole entry): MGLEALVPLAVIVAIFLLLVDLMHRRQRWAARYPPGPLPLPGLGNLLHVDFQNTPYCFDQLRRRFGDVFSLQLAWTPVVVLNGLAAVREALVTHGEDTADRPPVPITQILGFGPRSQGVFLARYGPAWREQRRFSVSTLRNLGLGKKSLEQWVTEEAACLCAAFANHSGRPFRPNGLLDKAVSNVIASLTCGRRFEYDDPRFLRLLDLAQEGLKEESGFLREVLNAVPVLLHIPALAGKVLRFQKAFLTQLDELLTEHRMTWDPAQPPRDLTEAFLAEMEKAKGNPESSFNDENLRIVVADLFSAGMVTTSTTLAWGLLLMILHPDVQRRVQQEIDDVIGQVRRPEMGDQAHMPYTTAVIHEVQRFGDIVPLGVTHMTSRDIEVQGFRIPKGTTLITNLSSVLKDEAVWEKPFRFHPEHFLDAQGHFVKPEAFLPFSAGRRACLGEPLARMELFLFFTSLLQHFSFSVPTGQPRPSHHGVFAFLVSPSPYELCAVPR
Chain of Nucleotide-binding oligomerization domain-containing protein 2 (Q9HC29 whole entry, the tested form may be a part): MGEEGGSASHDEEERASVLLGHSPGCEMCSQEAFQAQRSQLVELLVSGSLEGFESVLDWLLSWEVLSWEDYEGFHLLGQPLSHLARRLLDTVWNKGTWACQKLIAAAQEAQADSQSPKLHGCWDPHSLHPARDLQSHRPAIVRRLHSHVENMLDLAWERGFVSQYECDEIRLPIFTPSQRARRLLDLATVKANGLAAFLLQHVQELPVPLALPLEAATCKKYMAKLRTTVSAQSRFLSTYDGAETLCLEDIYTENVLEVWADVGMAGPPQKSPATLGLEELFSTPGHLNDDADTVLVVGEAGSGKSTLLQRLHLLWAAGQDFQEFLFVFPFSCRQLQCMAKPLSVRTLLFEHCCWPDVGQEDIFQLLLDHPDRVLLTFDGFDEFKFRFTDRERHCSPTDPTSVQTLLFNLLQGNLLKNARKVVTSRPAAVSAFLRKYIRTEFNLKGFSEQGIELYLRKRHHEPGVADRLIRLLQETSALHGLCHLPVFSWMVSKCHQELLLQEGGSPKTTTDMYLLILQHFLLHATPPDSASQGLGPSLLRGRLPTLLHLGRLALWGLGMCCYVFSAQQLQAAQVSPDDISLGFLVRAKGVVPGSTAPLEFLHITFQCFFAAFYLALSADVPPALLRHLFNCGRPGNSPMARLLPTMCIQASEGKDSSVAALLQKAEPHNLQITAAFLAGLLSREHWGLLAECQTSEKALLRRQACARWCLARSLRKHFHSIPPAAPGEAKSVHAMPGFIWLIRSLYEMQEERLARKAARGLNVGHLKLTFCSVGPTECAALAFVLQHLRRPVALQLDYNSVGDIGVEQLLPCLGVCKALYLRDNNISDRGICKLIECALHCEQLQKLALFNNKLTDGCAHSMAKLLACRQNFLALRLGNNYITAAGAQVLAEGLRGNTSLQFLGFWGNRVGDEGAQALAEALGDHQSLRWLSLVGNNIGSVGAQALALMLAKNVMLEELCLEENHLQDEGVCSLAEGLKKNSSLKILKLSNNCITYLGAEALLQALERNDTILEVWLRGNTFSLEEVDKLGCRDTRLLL
Chain of Paired box protein Pax-8 (Q06710 whole entry): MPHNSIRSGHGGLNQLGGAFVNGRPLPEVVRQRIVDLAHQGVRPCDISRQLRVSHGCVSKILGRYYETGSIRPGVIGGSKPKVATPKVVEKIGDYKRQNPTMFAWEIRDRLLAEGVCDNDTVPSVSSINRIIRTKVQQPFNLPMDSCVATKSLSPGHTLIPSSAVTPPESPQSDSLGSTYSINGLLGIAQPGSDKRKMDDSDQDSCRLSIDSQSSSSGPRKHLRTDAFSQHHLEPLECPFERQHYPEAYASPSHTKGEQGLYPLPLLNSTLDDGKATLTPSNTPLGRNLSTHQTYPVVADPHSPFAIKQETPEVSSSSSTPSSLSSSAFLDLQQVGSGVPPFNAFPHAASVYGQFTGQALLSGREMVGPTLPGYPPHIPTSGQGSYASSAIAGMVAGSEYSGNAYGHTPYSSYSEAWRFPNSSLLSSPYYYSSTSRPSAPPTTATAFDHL

Take `Cc1cc(Sc2nnc(N)s2)c2ccccc2n1`: the figures for the AC50 at Paired box protein Pax-8 and in the series with HEK293 [2] were 4.58 µM (active) and 3.03 µM (active), respectively. Moreover, the EC50 in series [1] was 14.6 µM (active).

Consider `CCOC(=O)C(C)(C)N(Cc1ccc(C)cc1)S(=O)(=O)c1ccc(Cl)c([N+](=O)[O-])c1`, for which the EC50 in series [3] is 15.3 µM (active); in series [6] it was > 53 µM (inactive); in series [1] it was 20.1 µM (active); in [7], 17.7 µM (active). The IC50 in series [4] is > 47.1 µM (inactive); in series [5], 3.61 µM (active).

Regarding `Cc1ccc(C(=O)NC(=C(Cl)Cl)S(=O)(=O)c2ccc(C)cc2)cc1`, the EC50 in the series on HEK293 [8] is 2.46 µM (active); in [9], 14.6 µM (active). Further, in [10], the AC50 is 4.39 µM (active). Moreover, the IC50 with HEK293 [11] is 6.28 µM (active); with HEK293 [12], > 20 µM (inactive); with HEK293 [13], > 20 µM (inactive); in the series on HEK293 [14], 5.55 µM (active).

On to `O=C(c1cccc(C(F)(F)F)c1)N1CCC(O)(CS(=O)(=O)Cc2ccccc2)CC1`, for which the results for the concentration at half-maximal activity (AC50) entry on Cytochrome P450 2C9 and at Cytochrome P450 3A4 were “inconclusive” and 3.16 µM (inconclusive), respectively.

`C#CCCCO/N=C1/[C@H]2O[C@@H]2[C@@H](O)[C@H]2[C@H]1CCn1c(=O)n(Cc3cc4c(cc3Cl)OCO4)c(=O)n12`: the AC50 entry on Cytochrome P450 2C9 and at Cytochrome P450 2C19 was “inconclusive” throughout.

On to `O=[N+]([O-])c1ccc(N2CCN(Cc3cccc([N+](=O)[O-])c3)CC2)cc1`, for which the AC50 with HEK293 [2] was 52.6 µM (active).

In the case of `Cc1ccc(NC(=O)CSc2ncnc3ccccc23)cc1S(=O)(=O)N1CCCCC1`, the EC50 with HEK293 [8] was 4.43 µM (active); in series [9] it was 4.73 µM (active). Further, the IC50 in the series with HEK293 [11] was 1.81 µM (active); in the series on HEK293 [12], > 20 µM (inactive); with HEK293 [13], 6.83 µM (active); with HEK293 [14], 1.73 µM (active).

In the case of `Cc1ccc(CNC(=O)C2CC(c3ccccc3[N+](=O)[O-])=NO2)o1` (stereo not given), on Cytochrome P450 2C9, the AC50 result is “inconclusive”.

In the case of `O=C(Nc1ccc(Cl)c(Cl)c1)Nc1nc(-c2ccccc2)cs1`, the EC50 was 1.52 µM (active) in series [15] and > 60 µM (not active) in series [16]. The AC50 with HEK293 [2] was 24.9 µM (active).

For the compound `CN1/C(=C/C(=O)CSc2ccccc2C(=O)O)C(C)(C)c2ccccc21`, the figures for the IC50 (on Protein skinhead-1; in series [5]) were > 100 µM (inactive) and 3.44 µM (active), respectively.

Consider `O=C(NCCCN1CCOCC1)C1COc2ccccc2O1` (stereo not given), for which the concentration at half-maximal activity (AC50) entry is “inconclusive” at Cytochrome P450 2C9, 17.8 µM (inconclusive) at Cytochrome P450 2C19 (read-out: AC50), 14.1 µM (inconclusive) on Cytochrome P450 3A4 and 7.94 µM (inconclusive) on Cytochrome P450 2D6.

Consider `COc1cc(C)nc(N2CCCC(C(=O)Nc3cc(Cl)ccc3OC)C2)n1` (stereo not given), for which, on Cytochrome P450 2C9, the concentration at half-maximal activity (AC50) result is listed as “inconclusive”.

As to `Nc1nc(-c2ccccc2)c(-c2ccccc2)s1`, the values for the AC50 entry on Cytochrome P450 2C9 and at Cytochrome P450 2D6 were “inconclusive” and 15.8 µM (inconclusive), respectively.
